The source of these data is patent US20180282323A1, “Mesoionic imidazole derivatives as insecticides” (BAYER CROPSCIENCE AKTIENGESELLSCHAFT, priority 2015, published 2018).

The test system of one data set is Myzus persicae. Description: Myzus persicae oral test. The class given is in vivo. The note with it: application rate 20 ppm, oral uptake through parafilm, after 5 days; for pest or weed control at 20 ppm: Myzus persicae, 120 h, read-out: efficacy. The procedure:
Myzus persicae—Oral Test Solvent: 100 parts by weight of acetone
To produce an appropriate active ingredient formulation, 1 part by weight of active ingredient is dissolved with the stated parts by weight of solvent and made up with water until the desired concentration is attained.
50 μl of the active ingredient formulation are transferred into microtitre plates and made up to a final volume of 200 μl with 150 μl of IPL41 insect medium (33%+15% sugar). Subsequently, the plates are sealed with parafilm, which a mixed population of green peach aphids (Myzus persicae) within a second microtitre plate is able to puncture and imbibe the solution through it.
After 5 days, the efficacy in % is determined. 100% means that all the aphids have been killed; 0% means that no aphids have been killed.

Data set [1] in a line: log P by HPLC on reversed-phase column (EEC directive 79/831 Annex V.A8). The class given is physicochemical. Particulars: for log p a): HPLC on reversed-phase column. The procedure:
a) The determination of the [M+H]^+ by LC-MS in the acidic range was effected at pH 2.7, with acetonitrile (containing 0.1% formic acid) and water as eluents; linear gradient from 10% acetonitrile to 95% acetonitrile, instrument: Agilent 1100 LC system, Agilent MSD system, HTS PAL.
The log P values reported in the tables and preparation examples above were determined in accordance with EEC directive 79/831 Annex V.A8 by HPLC (High Performance Liquid Chromatography) using a reversed-phase column (C18). Temperature 43° C.

Where [2] appears, read: HPLC on reversed-phase column (footnote a).
The mark [3] stands for this setting: reversed-phase C18 HPLC column, pH 2.7, HPLC on reversed-phase column (footnote a), read-out: log p.
Setting [4] is: reversed-phase C18 HPLC column, HPLC-MS, reversed-phase C18, 43° C., calibration with alkan-2-ones, read-out: log P.

Each structure is given as a SMILES string. Read-outs that look alike come from different tables or passages of the source.

`Cc1ccc[n+]2c(C(=O)NC3CC3)c([O-])n(C(C)c3ccc(Cl)nc3)c12` (racemic) [Example I-1-257] yielded an efficacy in the data set on Myzus persicae of 100%. Further, the “log p a)” value in data set [1] came to 1.52.

In the data set with Myzus persicae, `Cc1ccc[n+]2c(C(=O)NC3CC3)c([O-])n(C(C)c3ccc(Cl)nc3)c12` (racemic) [Example I-1-259] gave an efficacy of 90%. Also, the “log p a)” value in data set [1] is reported as 1.96.

`Cc1ccc[n+]2c(C(=O)Nc3c(F)cccc3F)c([O-])n(C(C)c3ccc(Cl)nc3)c12` (racemic) [Example I-1-275] registered an efficacy with Myzus persicae of 100%. In addition, the “log p a)” value in data set [1] is reported as 2.67.

Consider `O=C(CCl)c1c([O-])n(Cc2ccc(Cl)nc2)c2cccc[n+]12` [Example I-1-001], for which the efficacy in the data set with Myzus persicae was found to be 100%. The same molecule gave a log p in data set [1] (setting [2]) of 1.62.

As for `O=C(COc1cccnc1)c1c([O-])n(Cc2ccc(Cl)nc2)c2cccc[n+]12` [Example I-1-006], the efficacy with Myzus persicae turned out to be 100%. In data set [1] (setting [2]), the log p came to 0.93.

Molecule `O=C(Cn1ccc(Cl)n1)c1c([O-])n(Cc2cnc(Cl)s2)c2cccc[n+]12` [Example I-1-011] showed an efficacy with Myzus persicae of 100%. The molecule also came in with a log p in data set [1] (setting [2]) of 2.03.

The molecule `O=C(COc1cccnc1)c1c([O-])n(Cc2cnc(Cl)s2)c2cccc[n+]12` [Example I-1-018] returned an efficacy in the data set with Myzus persicae of 100%. In data set [1] (setting [2]), this molecule yielded a log p of 1.

In the data set on Myzus persicae, `O=C(CSc1ccccc1)c1c([O-])n(Cc2cnc(Cl)s2)c2cccc[n+]12` [Example I-1-025] registered an efficacy of 100%. In addition, in data set [1] (setting [2]), the log p was determined as 2.67.

For `O=C(COc1ccc(F)cc1)c1c([O-])n(Cc2ccc(Cl)nc2)c2cccc[n+]12` [Example I-1-031], the efficacy in the data set on Myzus persicae was found to be 100%. The molecule further yielded a log p in data set [1] (setting [2]) of 2.27.

Take `O=C(C[S+]([O-])Cc1ccccc1)c1c([O-])n(Cc2cnc(Cl)s2)c2cccc[n+]12` (centres unmarked) [Example I-1-035]: the efficacy in the data set on Myzus persicae was determined as 100%. The log p in data set [1] (setting [2]) stood at 1.72.

In the case of `CC(C)[S+]([O-])CC(=O)c1c([O-])n(Cc2cnc(Cl)s2)c2cccc[n+]12` (centres unmarked) [Example I-1-038], the efficacy in the data set on Myzus persicae was 100%. This molecule gave a log p in data set [1] (setting [2]) of 1.32.

Molecule `C[S+]([O-])CC(=O)c1c([O-])n(Cc2cnc(Cl)s2)c2cccc[n+]12` (centres unmarked) [Example I-1-039] had an efficacy in the data set on Myzus persicae of 100%. This molecule gave a log p in data set [1] (setting [2]) of 1.08.

Regarding `CCN(CC(=O)c1c([O-])n(Cc2cnc(Cl)s2)c2cccc[n+]12)C(C)=O` [Example I-1-040, 3-(N-Acetyl-N-ethylglycyl)-1-[(2-chloro-1,3-thiazol-5-yl)methyl]-1H-imidazo[1,2-a]pyridin-4-ium-2-olate], in the data set with Myzus persicae, the pest or weed control at 20 ppm came out at 100%. The chromatographic logP in data set [1] (setting [3]) and in data set [1] (setting [4]) was 1.49 in each case.

For the molecule `CCS(=O)(=O)CC(=O)c1c([O-])n(Cc2cnc(Cl)s2)c2cccc[n+]12` [Example I-1-042, 1-[(2-chloro-1,3-thiazol-5-yl)methyl]-3-[(ethylsulphonyl)acetyl]-1H-imidazo[1,2-a]pyridin-4-ium-2-olate], the pest or weed control at 20 ppm in the data set on Myzus persicae was 100%. The chromatographic logP in data set [1] (setting [3]) and in data set [1] (setting [4]) was 1.38 each time.

In the case of `N#Cc1ccn(CC(=O)c2c([O-])n(Cc3cnc(Cl)s3)c3cccc[n+]23)n1` [Example I-1-047], the efficacy with Myzus persicae came out at 100%. Also, in data set [1] (setting [2]), the log p came to 1.83.

In the data set on Myzus persicae, `O=C(Cn1cnc(C(F)(F)F)c1)c1c([O-])n(Cc2cnc(Cl)s2)c2cccc[n+]12` [Example I-1-051] came in with an efficacy of 100%. The log p in data set [1] (setting [2]) turned out to be 2.

`CSc1ccn(CC(=O)c2c([O-])n(Cc3cnc(Cl)s3)c3cccc[n+]23)n1` [Example I-1-052]: the efficacy with Myzus persicae was found to be 100%. The molecule also had a log p in data set [1] (setting [2]) of 1.94.

Take `O=C(CNCc1ccccc1)c1c([O-])n(Cc2cnc(Cl)s2)c2cccc[n+]12` [Example I-1-053]: the efficacy in the data set on Myzus persicae is recorded as 90%. In data set [1] (setting [2]), this molecule returned a log p of 1.

Turning to `O=C(COCc1ccc(F)cc1)c1c([O-])n(Cc2cnc(Cl)s2)c2cccc[n+]12` [Example I-1-055], the efficacy with Myzus persicae amounted to 100%. Also, the log p in data set [1] (setting [2]) was 2.41.

On to `O=C(Cn1ccc(C(F)(F)F)n1)c1c([O-])n(Cc2cnc(Cl)s2)c2cccc[n+]12` [Example I-1-057], for which the efficacy in the data set on Myzus persicae turned out to be 90%. Also, the log p in data set [1] (setting [2]) is 2.44.

For `O=C(COCc1ccccc1)c1c([O-])n(Cc2cncnc2)c2cccc[n+]12` [Example I-1-059], the efficacy in the data set with Myzus persicae is 100%. The same molecule displayed a log p in data set [1] (setting [2]) of 1.44.

Molecule `N#Cc1cnn(CC(=O)c2c([O-])n(Cc3ccc(Cl)nc3)c3cccc[n+]23)c1` [Example I-1-060] had an efficacy with Myzus persicae of 100%. The molecule further yielded a log p in data set [1] (setting [2]) of 1.55.

In the data set on Myzus persicae, `O=C(Cn1ccnn1)c1c([O-])n(Cc2cnc(Cl)s2)c2cccc[n+]12` [Example I-1-064] registered an efficacy of 100%. This molecule also registered a log p in data set [1] (setting [2]) of 1.18.

`N#Cc1cnn(CC(=O)c2c([O-])n(Cc3cncnc3)c3cccc[n+]23)c1` [Example I-1-065] came in with an efficacy with Myzus persicae of 100%. Besides, the log p in data set [1] (setting [2]) stood at 0.73.

`O=C(Cn1cccn1)c1c([O-])n(Cc2cncnc2)c2cccc[n+]12` [Example I-1-066] returned an efficacy with Myzus persicae of 90%. In addition, the log p in data set [1] (setting [2]) is reported as 0.56.

In turn, `CCN(CC(=O)c1c([O-])n(Cc2ccc(Cl)nc2)c2cccc[n+]12)C(C)=O` [Example I-1-071] gave an efficacy in the data set on Myzus persicae of 90%. This molecule also had a log p in data set [1] (setting [2]) of 1.4.

The molecule `COC(=O)COCC(=O)c1c([O-])n(Cc2cnc(Cl)s2)c2cccc[n+]12` [Example I-1-075] showed an efficacy in the data set with Myzus persicae of 100%. This molecule came in with a log p in data set [1] (setting [2]) of 1.41.

Regarding `CSCC(=O)c1c([O-])n(Cc2cncnc2)c2cccc[n+]12` [Example I-1-077], in the data set with Myzus persicae, the efficacy amounted to 100%. In addition, the log p in data set [1] (setting [2]) was found to be 0.79.

In turn, `O=C(COc1ccccc1Cl)c1c([O-])n(Cc2cnc(Cl)s2)c2cccc[n+]12` [Example I-1-078] came in with an efficacy with Myzus persicae of 90%. This molecule also registered a log p in data set [1] (setting [2]) of 2.77.

As for `CNC(=O)c1c([O-])n(Cc2cnc(Cl)cn2)c2cccc[n+]12` [Example I-1-280], the “log p a)” value in data set [1] came to 1.15.

`COC(=O)c1c([O-])n(Cc2cnc(Cl)cn2)c2c(C)ccc[n+]12` [Example I-1-281]: the “log p a)” value in data set [1] is given as 1.47.

Take `O=C(Nc1cc(Cl)cc(Cl)c1)c1c([O-])n(Cc2ccc(Cl)nc2)c2cccc[n+]12` [Example I-1-295]: the “log p a)” value in data set [1] was determined as 4.1.

As to `O=C(Nc1cccc(OC(F)(F)F)c1)c1c([O-])n(Cc2ccc(Cl)nc2)c2cccc[n+]12` [Example I-1-298], in data set [1], the “log p a)” value is on record as 3.55.

Take `Cc1cccc(NC(=O)c2c([O-])n(Cc3ccc(Cl)nc3)c3cccc[n+]23)c1` [Example I-1-300]: the “log p a)” value in data set [1] turned out to be 1.41.

Take `O=C(Nc1nccs1)c1c([O-])n(Cc2cnc(Cl)s2)c2cccc[n+]12` [Example I-1-318]: the “log p a)” value in data set [1] amounted to 2.05.

Regarding `O=C(Nc1ncccc1[N+](=O)[O-])c1c([O-])n(Cc2cnc(Cl)s2)c2cccc[n+]12` [Example I-1-320], the “log p a)” value in data set [1] is recorded as 1.91.

For the molecule `Cc1cccc(F)c1NC(=O)c1c([O-])n(Cc2cnc(Cl)s2)c2cccc[n+]12` [Example I-1-322], the “log p a)” value in data set [1] is given as 3.1.

As for `O=C(Nc1nccs1)c1c([O-])n(Cc2ccc(Cl)nc2)c2cccc[n+]12` [Example I-1-324], the “log p a)” value in data set [1] is 1.93.

With `Cc1cnc(NC(=O)c2c([O-])n(Cc3ccc(Cl)nc3)c3cccc[n+]23)s1` [Example I-1-327], in data set [1], the “log p a)” value is reported as 2.17.

For the molecule `COc1cc(NC(=O)c2c([O-])n(Cc3ccc(Cl)nc3)c3cccc[n+]23)ccn1` [Example I-1-329], the “log p a)” value in data set [1] was determined as 1.41.

Take `Cn1nccc1NC(=O)c1c([O-])n(Cc2cnc(Cl)s2)c2cccc[n+]12` [Example I-1-330]: the “log p a)” value in data set [1] turned out to be 1.6.

Consider `O=C(Nc1c(Cl)ncnc1Cl)c1c([O-])n(Cc2cnc(Cl)s2)c2cccc[n+]12` [Example I-1-331], for which, in data set [1], the “log p a)” value worked out at 2.17.

As to `Cn1ncc(Br)c1NC(=O)c1c([O-])n(Cc2cnc(Cl)s2)c2cccc[n+]12` [Example I-1-332], the “log p a)” value in data set [1] is 1.99.

On to `O=C(Nc1cnccc1Cl)c1c([O-])n(Cc2cnc(Cl)s2)c2cccc[n+]12` [Example I-1-334], for which the “log p a)” value in data set [1] is reported as 1.81.

Take `O=C(Nc1ncccc1Br)c1c([O-])n(Cc2cnc(Cl)s2)c2cccc[n+]12` [Example I-1-335]: the “log p a)” value in data set [1] is given as 1.58.

Consider `O=C(Nc1ncccc1C(F)(F)F)c1c([O-])n(Cc2cnc(Cl)s2)c2cccc[n+]12` [Example I-1-336], for which the “log p a)” value in data set [1] is given as 1.99.

For the molecule `Cc1cccnc1NC(=O)c1c([O-])n(Cc2cnc(Cl)s2)c2cccc[n+]12` [Example I-1-337], the “log p a)” value in data set [1] was found to be 0.91.

Consider `O=C(Nc1ncns1)c1c([O-])n(Cc2cnc(Cl)s2)c2cccc[n+]12` [Example I-1-338], for which the “log p a)” value in data set [1] was found to be 1.98.

Turning to `Clc1ccc(CNc2ncccn2)cn1` [N-[(6-chloropyridin-3-yl)methyl]pyrimidin-2-amine], the chromatographic logP in data set [1] came out at 1.36.
